Results as given in article PMC7279216, “Identification of Inhibitors to Trypanosoma cruzi Sirtuins Based on Compounds Developed to Human Enzymes” (International Journal of Molecular Sciences, 2020).
Where two headings read alike, the source gives them in different places.

Tests used:
T. cruzi Y H10 strain [1] = experiment: High content assay (HCA), T. cruzi in vitro infection of U2OS cells; assay type: cell-based, Trypanosoma cruzi; conditions: for EC50: read-out: EC50 Value (reduces 50% of infected cells number); for SI (selectivity index = CC50/EC50): U2OS CC50 / T. cruzi EC50
[2] = Host cell cytotoxicity in high content assay; conditions: human
SIRT1 = test system: SIRT1; parameters: method as in ref 22, 27 and unpublished results; conditions: 27 and unpublished results, cited from earlier work; for IC50: read-out: IC50 against human SIRT1
TcSir2rp3 = TcSir2rp3 (Trypanosoma cruzi, UniProt Q4E5B9); experiment: biochemical; conditions: for inhibition at 5 µM: read-out: % of inhibition of TcSir2rp3 deacetylase activity
SIRT2 = test system: SIRT2; parameters: method as in ref 22, 27 and unpublished results; conditions: 27 and unpublished results, cited from earlier work; for IC50: read-out: IC50 against human SIRT2
T. cruzi Y H10 strain [3] = experiment: Combinatory high content assay of SIRTi with BZN, T. cruzi in vitro infection; assay type: cell-based, Trypanosoma cruzi; conditions: for combinatory effect with benznidazole, overall: combination with BZN; for trypanocidal activity of SIRTi+BZN compared to BZN alone / trypanocidal activity of SIRTi+BZN compared to SIRTi alone: combination with BZN at constant EC50 ratios
TcSir2rp1 = TcSir2rp1 (Trypanosoma cruzi, UniProt Q4DP02); experiment: biochemical; assay type: biochemical; conditions: for inhibition of TcSir2rp1 deacetylase activity: 5 µM
SIRT5 = test system: SIRT5; parameters: method as in ref 27 and unpublished results; conditions: ref 27 and unpublished results; cited from earlier work
[4] = U2OS cells infected with T. cruzi Y H10 trypomastigotes
[5] = Trypanosoma cruzi, U2OS, 96 h, U2OS cells infected with T. cruzi, 96 hours incubation
[6] = Ratio 1, EC50 ratio 1/32 (BZN 0.8 µM)
[7] = Ratio 2, EC50 ratio 1/16 (BZN 1.5 µM)
[8] = Ratio 3, EC50 ratio 1/8 (BZN 3 µM)
[9] = Ratio 4, EC50 ratio 1/4 (BZN 6 µM)
[10] = Ratio 5, EC50 ratio 1/2 (BZN 12 µM)
[11] = Ratio 6, EC50 ratio 1 (BZN 24 µM)
[12] = Ratio 7, EC50 ratio 2 (BZN 48 µM)

TcSir2rp1, sequence (Q4DP02 entry or part of it): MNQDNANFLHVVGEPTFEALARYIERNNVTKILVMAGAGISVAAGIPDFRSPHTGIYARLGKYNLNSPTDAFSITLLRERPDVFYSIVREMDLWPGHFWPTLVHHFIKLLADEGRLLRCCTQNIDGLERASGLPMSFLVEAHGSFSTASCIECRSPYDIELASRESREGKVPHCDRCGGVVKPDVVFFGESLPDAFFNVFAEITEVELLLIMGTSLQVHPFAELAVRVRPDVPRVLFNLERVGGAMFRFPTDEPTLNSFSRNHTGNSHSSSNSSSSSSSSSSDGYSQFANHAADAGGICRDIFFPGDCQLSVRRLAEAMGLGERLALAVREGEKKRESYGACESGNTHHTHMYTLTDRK
TcSir2rp3, sequence (Q4E5B9 entry or part of it): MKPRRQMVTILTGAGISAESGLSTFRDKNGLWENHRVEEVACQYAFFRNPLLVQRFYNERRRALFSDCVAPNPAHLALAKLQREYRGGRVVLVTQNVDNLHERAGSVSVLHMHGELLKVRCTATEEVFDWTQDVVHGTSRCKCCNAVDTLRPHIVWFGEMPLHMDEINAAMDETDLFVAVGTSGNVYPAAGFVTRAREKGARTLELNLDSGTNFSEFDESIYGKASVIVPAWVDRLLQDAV

| SMILES | EC50 (T. cruzi Y H10 strain [1]; Trypanosoma cruzi, U2OS, 96 h) [µM] | SI (selectivity index = CC50/EC50) (T. cruzi Y H10 strain [1]) | CC50 at 96 h [2, 4] [µM] | IC50 (SIRT1) [µM] | inhibition at 5 µM (TcSir2rp3) [%] | IC50 (TcSir2rp3; read-out: TcSir2rp3 IC50 ± SD) [µM] | IC50 (SIRT2) [µM] | EC50 (T. cruzi Y H10 strain [1]; [5]) [µM] | IC50 against human SIRT2 (SIRT2) | combinatory effect with benznidazole, overall (T. cruzi Y H10 strain [3]) | trypanocidal activity of SIRTi+BZN compared to BZN alone (T. cruzi Y H10 strain [3]) | inhibition of TcSir2rp1 deacetylase activity (TcSir2rp1) | further results |
| --- | --- | --- | --- | --- | --- | --- | --- | --- | --- | --- | --- | --- | --- |
| O=C(Cn1ccnc1[N+](=O)[O-])NCc1ccccc1 [BZN, benznidazole, reference compound] | 1.96 | > 102 | > 200 |  |  |  |  |  |  |  |  |  |  |
| CC(CSc1cccc(/N=C/c2c(O)ccc3ccccc23)c1)c1ccccc1 (stereo not shown) [Compound 8] |  | 1.89 | 76.8 | ~40 | > 30 | 18.8 ± 5.34 | ~20 | 40.6 |  |  |  |  |  |
| O=c1[nH]c(SCc2ccc3ccccc3c2)nc(-c2ccccc2)c1Cc1c(O)ccc2ccccc12 [Compound 12] |  | 1.38 | 48.8 | > 150 | > 30 | 14.3 ± 6.06 | 6.3 | 35.4 | single-digit micromolar | low or no synergism | no difference |  | type of interaction with BZN (T. cruzi Y H10 strain [3]; 1/4 ratio): synergistic effect; CI (combinatory index) with BZN (T. cruzi Y H10 strain [3]; [6]): 6.6; CI (combinatory index) with BZN (T. cruzi Y H10 strain [3]; [7]): 13.2; CI (combinatory index) with BZN (T. cruzi Y H10 strain [3]; [8]): 1.02; CI (combinatory index) with BZN (T. cruzi Y H10 strain [3]; [9]): 0.82; CI (combinatory index) with BZN (T. cruzi Y H10 strain [3]; [10]): 1.14; CI (combinatory index) with BZN (T. cruzi Y H10 strain [3]; [11]): 1.48; CI (combinatory index) with BZN (T. cruzi Y H10 strain [3]; [12]): 2.29; type of interaction with BZN (T. cruzi Y H10 strain [3]; ratios 1/8, 1/2 and 1/1): additive effect; type of interaction with BZN (T. cruzi Y H10 strain [3]; ratios lower than 1/8): antagonistic effect |
| O=C(CSc1nc(-c2ccccc2)c(Cc2c(O)ccc3ccccc23)c(=O)[nH]1)c1ccccc1 [Compound 13] |  | > 2.2 | > 100 | > 150 | > 30 | 18.5 ± 1.97 |  | 45.1 | single-digit micromolar |  |  |  |  |
| CCCCCSc1nc(-c2ccccc2)c(Cc2c(O)ccc3ccccc23)c(=O)[nH]1 [Compound 15] |  | 1.89 | 36.4 | > 150 |  |  |  | 19.4 | single-digit micromolar |  |  | inhibited TcSir2rp1 activity | IC50 (TcSir2rp1): 32.4 ± 7.88 µM; EC50 (T. cruzi Y H10 strain [1]; U2OS cells infected with T. cruzi, 96 hours incubation): 19.4 µM |
| O=c1[nH]c(N/N=C/c2ccc([N+](=O)[O-])cc2)nc(-c2ccccc2)c1Cc1c(O)ccc2ccccc12 [Compound 17] |  | 2.31 | 19.6 | ~50 |  |  | ~50 | 8.5 |  | synergistic effects | no increase in trypanocidal activity | inhibited TcSir2rp1 activity | IC50 (TcSir2rp1): 25.5 ± 4.73 µM; CI (combinatory index) with BZN (T. cruzi Y H10 strain [3]; [6]): 0.38; CI (combinatory index) with BZN (T. cruzi Y H10 strain [3]; [7]): 0.69; CI (combinatory index) with BZN (T. cruzi Y H10 strain [3]; [8]): 0.73; CI (combinatory index) with BZN (T. cruzi Y H10 strain [3]; [9]): 0.74; CI (combinatory index) with BZN (T. cruzi Y H10 strain [3]; [10]): 1.25; CI (combinatory index) with BZN (T. cruzi Y H10 strain [3]; [11]): 2.45; CI (combinatory index) with BZN (T. cruzi Y H10 strain [3]; [12]): 3.52; trypanocidal activity of SIRTi+BZN compared to SIRTi alone (T. cruzi Y H10 strain [3]): increase in the trypanocidal activity; type of interaction with BZN (T. cruzi Y H10 strain [3]; ratios 1/2, 1, and 2): antagonistic effect; type of interaction with BZN (T. cruzi Y H10 strain [3]; ratios lower than 1/4): tendency towards a synergistic effect |
| CCOC(=O)/C(=C\c1cc(C(=O)c2ccccc2OC)c[nH]1)C(=O)Nc1cccc2ncccc12 [Compound 27] |  | 8.18 | 46.9 |  |  |  | 10.5 | 5.73 |  |  |  | did not show potent inhibitory effect | % of inhibition of TcSir2rp3 deacetylase activity (TcSir2rp3; 5 µM): did not show potent inhibitory effect |
| CCN1C(=O)/C(=C\c2ccc(-c3ccc(Cl)c(Cl)c3)o2)C(=O)NC1=S [Compound 30] | 42.7 |  |  |  | > 30 |  |  |  | single-digit micromolar |  |  |  | IC50 against human SIRT5 (SIRT5): single-digit micromolar; IC50 against human SIRT1 (SIRT1): single-digit micromolar; CC50 at 96 h [2]: > 100 µM |
| CCCN1C(=O)/C(=C\c2ccc(-c3ccc(Cl)c(Cl)c3)o2)C(=O)NC1=S [Compound 31] |  |  |  |  |  |  |  |  |  |  |  |  | IC50 (TcSir2rp3): 16.3 ± 9.54 µM |
| C=CCN1C(=O)/C(=C\c2ccc(-c3ccc(Cl)c(Cl)c3)o2)C(=O)NC1=S [Compound 32] | 39.8 |  |  |  | > 30 |  |  |  | single-digit micromolar | synergistic effects | not if compared to BZN alone |  | IC50 against human SIRT5 (SIRT5): single-digit micromolar; IC50 against human SIRT1 (SIRT1): single-digit micromolar; IC50 (TcSir2rp3): 16.4 ± 6.7 µM; type of interaction with BZN (T. cruzi Y H10 strain [3]; all concentration ratios lower than 1/2): synergistic effect; trypanocidal activity of SIRTi+BZN compared to SIRTi alone (T. cruzi Y H10 strain [3]): increased the trypanocidal activity; CC50 at 96 h [2]: 77 µM |
